Assay results reported in PMC7316778 (Nature Communications, 2020).
Values joined by “and” are separate entries in the source; they are usually repeats but may differ in a detail not shown here. Equal values may be shown once.

Assays:
FES^WT = biological target: T1, FES^WT (Homo sapiens, UniProt P07332); test: In vitro TR-FRET kinase assay; format: biochemical; details: for Residual activity (%): FES WT, mean, n=3; for IC50: TR-FRET assay, 5 µM ATP, n = 3, read-out: pIC50 FES^WT (converted)
T1 construct: human FES cDNA encoding residues 448–822 or human FER cDNA encoding residues 448–820 was amplified by PCR; made in house; host or cells: E. coli BL21(DE3), co-expressing YopH phosphatase
T1 sequence (P07332 448-822): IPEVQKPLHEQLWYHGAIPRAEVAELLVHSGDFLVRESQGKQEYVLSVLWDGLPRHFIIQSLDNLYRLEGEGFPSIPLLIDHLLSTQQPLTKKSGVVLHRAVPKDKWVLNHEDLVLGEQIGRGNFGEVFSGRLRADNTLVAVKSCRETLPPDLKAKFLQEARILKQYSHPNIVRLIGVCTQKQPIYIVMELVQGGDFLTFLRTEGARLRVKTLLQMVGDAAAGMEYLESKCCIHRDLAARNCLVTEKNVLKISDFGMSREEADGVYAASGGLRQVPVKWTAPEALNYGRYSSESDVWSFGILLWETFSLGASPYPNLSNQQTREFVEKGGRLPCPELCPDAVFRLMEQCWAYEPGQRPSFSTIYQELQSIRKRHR
Procedure: All measurements were performed in triplicate.

FER^WT = FER^WT (Homo sapiens, UniProt P16591); test: In vitro TR-FRET kinase assay
Sequence of FER^WT (P16591 448-820): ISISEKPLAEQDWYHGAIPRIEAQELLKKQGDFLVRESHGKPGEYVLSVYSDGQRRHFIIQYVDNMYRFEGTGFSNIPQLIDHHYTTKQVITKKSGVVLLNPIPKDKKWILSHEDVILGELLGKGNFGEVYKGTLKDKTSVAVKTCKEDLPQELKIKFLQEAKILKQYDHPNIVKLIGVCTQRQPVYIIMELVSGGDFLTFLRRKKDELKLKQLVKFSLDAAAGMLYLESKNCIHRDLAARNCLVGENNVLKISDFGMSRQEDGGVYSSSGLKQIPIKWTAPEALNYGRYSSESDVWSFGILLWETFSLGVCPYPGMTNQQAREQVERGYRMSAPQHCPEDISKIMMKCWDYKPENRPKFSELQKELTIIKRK

[1] = system: FES^S700C HL-60 neutrophils; test: Phagocytosis assay with GFP-expressing E. coli; format: cell-based, human
Procedure: HL-60 cells were differentiated to neutrophils as described above. Cells were counted and centrifuged (200g, 5 min), followed by resuspension in growth medium without antibiotics. Cells were incubated with vehicle or inhibitor (from 1000x concentrated stocks in DMSO) for 1 h at 37 °C prior to infection (1×10^6 cells in 900 µL in 12-well plate). Meanwhile, E. coli B834(DE3) constitutively expressing GFP^A206K were grown in LB medium to an OD600 of 0.4–1.0, after which bacteria were centrifuged (2000g, 5 min), washed and resuspended in PBS to appropriate density. Neutrophils were infected by addition of bacteria at multiplicity of infection (MOI) of 30 unless stated otherwise. Cells were then incubated for 1 h at 37 °C unless stated otherwise, after which cells were resuspended and transferred to Eppendorf tubes, washed in FACS buffer (1 mL, 500g, 3 min) and fixed in 1% PFA in PBS (15 min, 4 °C, in the dark). Samples were further processed as described above.
Events (generally 20,000 per condition) were gated by forward and side scatter (cells), side scatter area (singlets) and the percentage of GFP-positive cells and GFP mean fluorescence intensity (MFI) were determined based on background fluorescence for non-infected cells. The GREEN-B channel (525/30 filter) was used to detect GFP.

In the case of `C=CC(=O)Nc1cccc(Nc2nc(Nc3ccccc3OC)ncc2Cl)c1` [Supplementary Figure 1d], the “Residual activity (%)” value (FES^WT; log[inhibitor] (M) = -5) is reported as 32.3982%, the “Residual activity (%)” value (FES^WT; log[inhibitor] (M) = -5.52288) is reported as 40.0335% and the “Residual activity (%)” value (FES^WT; log[inhibitor] (M) = -6) is reported as 62.9411%. The “Residual activity (%)” value (FES^WT; log[inhibitor] (M) = -6.52288) was 63.4299%, the “Residual activity (%)” value (FES^WT; log[inhibitor] (M) = -7) was 90.1255% and the “Residual activity (%)” value (FES^WT; log[inhibitor] (M) = -7.52288) was 87.1043%. The “Residual activity (%)” value (FES^WT; log[inhibitor] (M) = -8) was 96.4271%, the “Residual activity (%)” value (FES^WT; log[inhibitor] (M) = -8.52288) was 92.3122% and the “Residual activity (%)” value (FES^WT; log[inhibitor] (M) = -9) was 101.396%. For the same compound, the “Residual activity (%)” value (FES^WT; log[inhibitor] (M) = -9.52288) was 120.198%, the “Residual activity (%)” value (FES^WT; log[inhibitor] (M) = -10.5229) was 97.4644% and the “Residual activity (%)” value (FES^WT; log[inhibitor] (M) = -11) was 93.0274%.

With `C=CC(=O)Nc1ccccc1Nc1nc(Nc2ccccc2OC)ncc1Cl` [Supplementary Figure 1e] the “Residual activity (%)” value (FES^WT; log[inhibitor] (M) = -5) was 4.602%, the “Residual activity (%)” value (FES^WT; log[inhibitor] (M) = -5.52288) was 7.942% and the “Residual activity (%)” value (FES^WT; log[inhibitor] (M) = -6) was 20.2502%. For the same compound, the “Residual activity (%)” value (FES^WT; log[inhibitor] (M) = -6.52288) was 52.3925%, the “Residual activity (%)” value (FES^WT; log[inhibitor] (M) = -7) was 77.2757% and the “Residual activity (%)” value (FES^WT; log[inhibitor] (M) = -7.52288) was 90.9565%. The “Residual activity (%)” value (FES^WT; log[inhibitor] (M) = -8) was 93.9799%, the “Residual activity (%)” value (FES^WT; log[inhibitor] (M) = -8.52288) was 103.383% and the “Residual activity (%)” value (FES^WT; log[inhibitor] (M) = -9) was 97.8768%. The “Residual activity (%)” value (FES^WT; log[inhibitor] (M) = -9.52288) was 97.6076%, the “Residual activity (%)” value (FES^WT; log[inhibitor] (M) = -10) was 100% and the “Residual activity (%)” value (FES^WT; log[inhibitor] (M) = -10.5229) was 116.125%.

In the case of `CCC(=O)Nc1ccccc1Nc1nc(Nc2ccccc2OC)ncc1Cl` [Compound 5], the IC50 (FES^WT) is reported as over 10000 nM and the IC50 (FER^WT) is reported as 126 nM.

With `CCC(=O)Nc1ccccc1Nc1nc(Nc2ccccc2OC)ncc1Cl` [Supplementary Figure 8e] the “Residual activity (%) WT Mean” value (FER^WT; log[inhibitor] (M) -5) was 15.6173%, the “Residual activity (%) WT Mean” value (FER^WT; log[inhibitor] (M) -5.52288) was 11.558% and the “Residual activity (%) WT Mean” value (FER^WT; log[inhibitor] (M) -6) was 19.5081%. For the same compound, the “Residual activity (%) WT Mean” value (FER^WT; log[inhibitor] (M) -6.52288) was 74.3812%, the “Residual activity (%) WT Mean” value (FER^WT; log[inhibitor] (M) -7) was 96.1324% and the “Residual activity (%) WT Mean” value (FER^WT; log[inhibitor] (M) -7.52288) was 93.3601%. The “Residual activity (%) WT Mean” value (FER^WT; log[inhibitor] (M) -8) was 104.761%, the “Residual activity (%) WT Mean” value (FER^WT; log[inhibitor] (M) -8.52288) was 92.7732% and the “Residual activity (%) WT Mean” value (FER^WT; log[inhibitor] (M) -9) was 106.725%. For the same compound, the “Residual activity (%) WT Mean” value (FER^WT; log[inhibitor] (M) -9.52288) was 98.2336%, the “Residual activity (%) WT Mean” value (FER^WT; log[inhibitor] (M) -10) was 113.972% and the “Residual activity (%) WT Mean” value (FER^WT; log[inhibitor] (M) -10.5229) was 97.8463%. For the same compound, the “Residual activity (%) WT Mean” value (FER^WT; log[inhibitor] (M) -11) was 108.607%.

`C#CCOc1ccc(Nc2ncc(Cl)c(Nc3ccccc3NC(=O)C=C)n2)c(OC)c1` [Supplementary Figure 8f] was tested, and the “Residual activity (%) WT Mean” value (FER^WT; log[inhibitor] (M) -5) was 5.2329%, the “Residual activity (%) WT Mean” value (FER^WT; log[inhibitor] (M) -5.52288) was 3.792% and the “Residual activity (%) WT Mean” value (FER^WT; log[inhibitor] (M) -6) was 14.1153%. The “Residual activity (%) WT Mean” value (FER^WT; log[inhibitor] (M) -6.52288) was 25.7365%, the “Residual activity (%) WT Mean” value (FER^WT; log[inhibitor] (M) -7) was 62.4124% and the “Residual activity (%) WT Mean” value (FER^WT; log[inhibitor] (M) -7.52288) was 74.9371%. For the same compound, the “Residual activity (%) WT Mean” value (FER^WT; log[inhibitor] (M) -8) was 97.3541%, the “Residual activity (%) WT Mean” value (FER^WT; log[inhibitor] (M) -8.52288) was 92.3988% and the “Residual activity (%) WT Mean” value (FER^WT; log[inhibitor] (M) -9) was 107.069%. For the same compound, the “Residual activity (%) WT Mean” value (FER^WT; log[inhibitor] (M) -9.52288) was 97.7799%, the “Residual activity (%) WT Mean” value (FER^WT; log[inhibitor] (M) -10) was 105.81% and the “Residual activity (%) WT Mean” value (FER^WT; log[inhibitor] (M) -10.5229) was 90.1497%. The “Residual activity (%) WT Mean” value (FER^WT; log[inhibitor] (M) -11) was 111.768%.

Work on `COc1ccccc1Nc1ncc(Cl)c(Nc2ccccc2S(=O)(=O)C(C)C)n1` [Compound 2] yielded an IC50 (FES^WT) of 50.1 nM and an IC50 (FER^WT) of 5.01 nM.

In the case of `COc1cc(Nc2ncc(F)c(Nc3ccc4c(n3)NC(=O)C(C)(C)O4)n2)cc(OC)c1OC` [Compound R406, R406], the Phagocytic index ([1]; Figure 7i, replicates) is reported as 212.415 and 224.559 and 218.427 and 271.225 and 264.489 and the Phagocytosis ([1]; R406 1 µM) is reported as “reduced phagocytosis to similar levels as observed for WEL028”.
